What all share (assay type): in vivo
Assay [1] concerns Ipomoea hederacea (IPOHE). In words: Post-emergence herbicidal glasshouse test. The note with it: evaluated after 13 days, five point scale. As for the experimental part: (§1) Seeds of a variety of test species are sown in standard soil in pots (Lolium perenne (LOLPE), Solanum nigrum (SOLNI), Amaranthus retoflexus (AMARE), Setaria faberi (SETFA), Echinochloa crus-galli (ECHCG), Ipomoea hederacea (IPOHE)). After cultivation for one day (pre-emergence) or after 8 days cultivation (post-emergence) under controlled conditions in a glasshouse (at 24/16° C., day/night; 14 hours light; 65% humidity), the plants are sprayed with an aqueous spray solution derived from the formulation of the technical active ingredient in acetone/water (50:50) solution containing 0.5% Tween 20 (polyoxyethelyene sorbitan monolaurate, CAS RN 9005-64-5). Compounds are applied at 500 g/h unless otherwise stated. The test plants are then grown in a glasshouse under controlled conditions in a glasshouse (at 24/16° C., day/night; 14 hours light; 65% humidity) and watered twice daily. After 13 days for pre and post-emergence, the test is evaluated for the percentage damage caused to the plant. The biological activities are shown in the following table on a five point scale (5=80-100%; 4=60-79%; 3=40-59%; 2=20-39%; 1=0-19%).

The subject of assay [2] is Amaranthus retoflexus (AMARE). In words: Post-emergence herbicidal glasshouse test. Conditions: evaluated after 13 days, five point scale. As for the experimental part:
as §1

Assay [3] has as its system Lolium perenne (LOLPE). In words: Post-emergence herbicidal glasshouse test. The note with it: applied at 250 g/ha, evaluated after 13 days, five point scale. As for the experimental part:
as §1

Assay [4] deals with Echinochloa crus-galli (ECHCG). In words: Post-emergence herbicidal glasshouse test. Conditions: evaluated after 13 days, five point scale. As for the experimental part:
as §1

Assay [5] relates to Solanum nigrum (SOLNI). The assay is described as follows: Post-emergence herbicidal glasshouse test. The note with it: applied at 250 g/ha, evaluated after 13 days, five point scale. As for the experimental part: as §1
Assay [6] has as its system Setaria faberi (SETFA). The assay is described as follows: Post-emergence herbicidal glasshouse test. Conditions: evaluated after 13 days, five point scale. As for the experimental part:
as §1

In assay [7] the test system is Ipomoea hederacea (IPOHE). The assay is described as follows: Pre-emergence herbicidal glasshouse test. Conditions: evaluated after 13 days, five point scale. As for the experimental part:
as §1

Assay [8] concerns Amaranthus retoflexus (AMARE). In words: Pre-emergence herbicidal glasshouse test. Conditions: evaluated after 13 days, five point scale. As for the experimental part:
as §1

Assay [9] has as its system Lolium perenne (LOLPE). In words: Pre-emergence herbicidal glasshouse test. The note with it: applied at 250 g/ha, evaluated after 13 days, five point scale. As for the experimental part: as §1
The test system of assay [10] is Echinochloa crus-galli (ECHCG). The assay is described as follows: Pre-emergence herbicidal glasshouse test. Conditions: evaluated after 13 days, five point scale. As for the experimental part: as §1
Assay [11] concerns Solanum nigrum (SOLNI). The assay is described as follows: Pre-emergence herbicidal glasshouse test. Conditions: applied at 250 g/ha, evaluated after 13 days, five point scale. As for the experimental part: as §1
Assay [12] has as its system Setaria faberi (SETFA). The assay is described as follows: Pre-emergence herbicidal glasshouse test. The note with it: evaluated after 13 days, five point scale. As for the experimental part:
as §1

In the case of `Cn1nnnc1NC(=O)c1cc2cnc(C(F)(F)F)nc2c(-c2ccccc2)c1C(F)(F)F` [Compound 1.001], the “percentage damage caused to the plant, POST Application IPOHE” value in assay [1] (applied at 250 g/ha) is 5 (5=80-100%). Further, in assay [2] (applied at 250 g/ha), the “percentage damage caused to the plant, POST Application AMARE” value is 5 (5=80-100%). The “percentage damage caused to the plant, POST Application LOLPE” value in the assay on Lolium perenne (LOLPE) [3] is recorded as 4 (4=60-79%). Also, the “percentage damage caused to the plant, POST Application ECHCG” value in assay [4] (applied at 250 g/ha) is 5 (5=80-100%). Also, the “percentage damage caused to the plant, POST Application SOLNI” value with Solanum nigrum (SOLNI) [5] is 5 (5=80-100%). The “percentage damage caused to the plant, POST Application SETFA” value in the assay on Setaria faberi (SETFA) [6] (applied at 250 g/ha) is reported as 5 (5=80-100%). The “percentage damage caused to the plant, PRE Application IPOHE” value in assay [7] (applied at 250 g/ha) is 4 (4=60-79%). Besides, in [8] (applied at 250 g/ha), the “percentage damage caused to the plant, PRE Application AMARE” value was 5 (5=80-100%). Moreover, in the assay with Lolium perenne (LOLPE) [9], the “percentage damage caused to the plant, PRE Application LOLPE” value is reported as 1 (1=0-19%). The “percentage damage caused to the plant, PRE Application ECHCG” value in assay [10] (applied at 250 g/ha) is listed as 5 (5=80-100%). Besides, in the assay with Solanum nigrum (SOLNI) [11], the “percentage damage caused to the plant, PRE Application SOLNI” value is 5 (5=80-100%). Also, the “percentage damage caused to the plant, PRE Application SETFA” value in the assay with Setaria faberi (SETFA) [12] (applied at 250 g/ha) is reported as 3 (3=40-59%).
Take `Cc1c(C(=O)Nc2nnnn2C)cc2cnc(C(F)(F)F)nc2c1-c1ccccc1` [Compound 1.006]: in assay [1] (applied at 500 g/h), the “percentage damage caused to the plant, POST Application IPOHE” value is reported as 5 (5=80-100%). Besides, in assay [2] (applied at 500 g/h), the “percentage damage caused to the plant, POST Application AMARE” value is 5 (5=80-100%). For the same compound, in [4] (applied at 500 g/h), the “percentage damage caused to the plant, POST Application ECHCG” value is recorded as 5 (5=80-100%). Also, in the assay on Setaria faberi (SETFA) [6] (applied at 500 g/h), the “percentage damage caused to the plant, POST Application SETFA” value is on record as 5 (5=80-100%). For the same compound, in assay [7] (applied at 500 g/h), the “percentage damage caused to the plant, PRE Application IPOHE” value is listed as 3 (3=40-59%). For the same compound, in assay [8] (applied), the “percentage damage caused to the plant, PRE Application AMARE” value was 5 (5=80-100%). Also, the “percentage damage caused to the plant, PRE Application ECHCG” value in assay [10] (applied at 500 g/h) is 2 (2=20-39%). For the same compound, the “percentage damage caused to the plant, PRE Application SETFA” value in the assay on Setaria faberi (SETFA) [12] (applied at 500 g/h) is recorded as 5 (5=80-100%).
For `Cn1nnnc1NC(=O)c1cc2cnc(C(F)(F)F)nc2c(-c2ccccc2)c1Cl` [Compound 1.021], in [1] (applied at 500 g/h), the “percentage damage caused to the plant, POST Application IPOHE” value is 5 (5=80-100%). Also, the “percentage damage caused to the plant, POST Application AMARE” value in [2] (applied at 500 g/h) is on record as 5 (5=80-100%). Besides, the “percentage damage caused to the plant, POST Application ECHCG” value in [4] (applied at 500 g/h) is given as 5 (5=80-100%). Besides, the “percentage damage caused to the plant, POST Application SETFA” value in the assay with Setaria faberi (SETFA) [6] (applied at 500 g/h) was 5 (5=80-100%). For the same compound, the “percentage damage caused to the plant, PRE Application IPOHE” value in assay [7] (applied at 500 g/h) is 5 (5=80-100%). Besides, the “percentage damage caused to the plant, PRE Application AMARE” value in assay [8] (applied) was 5 (5=80-100%). Also, the “percentage damage caused to the plant, PRE Application ECHCG” value in assay [10] (applied at 500 g/h) was 5 (5=80-100%). Also, in the assay with Setaria faberi (SETFA) [12] (applied at 500 g/h), the “percentage damage caused to the plant, PRE Application SETFA” value is listed as 5 (5=80-100%).
As to `Cn1nnnc1NC(=O)c1cc2cnc(C3CC3)nc2c(-c2ccccc2)c1Cl` [Compound 1.028], in assay [1] (applied at 500 g/h), the “percentage damage caused to the plant, POST Application IPOHE” value is 5 (5=80-100%). In assay [2] (applied at 500 g/h), the “percentage damage caused to the plant, POST Application AMARE” value is reported as 5 (5=80-100%). In assay [4] (applied at 500 g/h), the “percentage damage caused to the plant, POST Application ECHCG” value is reported as 5 (5=80-100%). The “percentage damage caused to the plant, POST Application SETFA” value in the assay on Setaria faberi (SETFA) [6] (applied at 500 g/h) is 5 (5=80-100%). The “percentage damage caused to the plant, PRE Application IPOHE” value in assay [7] (applied at 500 g/h) is given as 3 (3=40-59%). In assay [8] (applied), the “percentage damage caused to the plant, PRE Application AMARE” value is listed as 5 (5=80-100%). Also, the “percentage damage caused to the plant, PRE Application ECHCG” value in assay [10] (applied at 500 g/h) is listed as 5 (5=80-100%). Further, the “percentage damage caused to the plant, PRE Application SETFA” value in the assay on Setaria faberi (SETFA) [12] (applied at 500 g/h) is on record as 5 (5=80-100%).
On to `CC(C)c1ncc2cc(C(=O)Nc3nnnn3C)c(Cl)c(-c3ccccc3)c2n1` [Compound 1.035], for which the “percentage damage caused to the plant, POST Application IPOHE” value in assay [1] (applied at 500 g/h) was 5 (5=80-100%). For the same compound, in [2] (applied at 500 g/h), the “percentage damage caused to the plant, POST Application AMARE” value is reported as 5 (5=80-100%). Besides, the “percentage damage caused to the plant, POST Application ECHCG” value in assay [4] (applied at 500 g/h) is 5 (5=80-100%). Moreover, the “percentage damage caused to the plant, POST Application SETFA” value in the assay on Setaria faberi (SETFA) [6] (applied at 500 g/h) is on record as 5 (5=80-100%). For the same compound, the “percentage damage caused to the plant, PRE Application IPOHE” value in assay [7] (applied at 500 g/h) is given as 4 (4=60-79%). The “percentage damage caused to the plant, PRE Application AMARE” value in [8] (applied) is recorded as 5 (5=80-100%). In assay [10] (applied at 500 g/h), the “percentage damage caused to the plant, PRE Application ECHCG” value is 5 (5=80-100%). The “percentage damage caused to the plant, PRE Application SETFA” value with Setaria faberi (SETFA) [12] (applied at 500 g/h) was 5 (5=80-100%).
Take `Cn1nnnc1NC(=O)c1cc2cncnc2c(-c2ccccc2)c1Cl` [Compound 1.042]: the “percentage damage caused to the plant, POST Application IPOHE” value in [1] (applied at 500 g/h) is recorded as 5 (5=80-100%). For the same compound, in assay [2] (applied at 500 g/h), the “percentage damage caused to the plant, POST Application AMARE” value is reported as 5 (5=80-100%). In assay [4] (applied at 500 g/h), the “percentage damage caused to the plant, POST Application ECHCG” value is 5 (5=80-100%). In addition, in the assay with Setaria faberi (SETFA) [6] (applied at 500 g/h), the “percentage damage caused to the plant, POST Application SETFA” value is on record as 5 (5=80-100%). In addition, the “percentage damage caused to the plant, PRE Application IPOHE” value in assay [7] (applied at 500 g/h) was 5 (5=80-100%). Further, the “percentage damage caused to the plant, PRE Application AMARE” value in assay [8] (applied) is on record as 5 (5=80-100%). Moreover, in assay [10] (applied at 500 g/h), the “percentage damage caused to the plant, PRE Application ECHCG” value is listed as 5 (5=80-100%). Further, the “percentage damage caused to the plant, PRE Application SETFA” value in the assay on Setaria faberi (SETFA) [12] (applied at 500 g/h) is reported as 5 (5=80-100%).

These data come from US10194660B2, “Herbicidal compounds” (Syngenta Participations AG, priority 2015, dated 2019).
